# In patent publication US8877809B2, “Compositions and methods for treating macular degeneration” (The Trustees of Columbia University in the City of New York, priority 2007, dated 2014):
# Entries after “also recorded” stand apart in the source; their conditions may differ. Read-outs that look alike come from different tables or passages of the source.
# Experiments:
# ABCR knockout mice = conditions: cited from earlier work
# users = conditions: cited from earlier work
# [1] = mouse, in vivo; cited from earlier work
# CD-1 (ICR) mice = assay: A2E-lipofuscin in eyes of CD-1 (ICR) mice after IP retinal dosing, HPLC; format: in vivo; conditions: 1.5 mg IP bi-weekly for 6 weeks; HPLC at 445 nm
# Procedure: C20-D3-all-trans-retinal was administered to mice in order to measure its ability to form A2E in the eye compared to all-trans-retinal. […], 8-week old, CD-1 (ICR) mice (from Charles River, Wilmington, Mass.) were divided up into two groups of five and administered 1.5 mg of ether all-trans-retinal or C20-D3-all-trans-retinal by intraperitoneal injection (IP) injection in a 10% solution of Tween-20 in saline bi-weekly for 6 weeks. At the end of this six-week period, each mouse was given a total of 60,000 I.U.(18 mg) or about 28-times the original amount of vitamin A in the mouse's body. Massive dosing with C20-D3-all-trans-retinal quickly replaces normal vitamin A stores with the C20-D3-analog. And, the injected retinal rapidly accumulates in the eye (rod outer segments), where at high enough concentrations it will react to form lipofuscin pigments. This is similar to the accumulation of all-trans-retinal in the ABCR^−/− mice and in patents with Stargardt's disease.
# At the end of the six week period, the eyes were dissected, the retinas and eyecups pooled into groups of 4 or 5, and homogenated with 50 μL ethanol. The homogenate was centrifuged at 13,000 rpm for 5 minutes and 40 μL of the supernatant was drawn off and analyzed for A2E-lipofuscin by HPLC. Retinol and retinol esters were analyzed at 325 nm and A2E-lipofuscin was measured at 445 nm.
# [2] = In vitro A2E formation from retinal, ethanolamine and acetic acid, followed by HPLC; conditions: mass spectrometry of the reaction mixture after 50 hours
# CD IGS rats = assay: A2E-lipofuscin in wild-type CD IGS rats after 8 weeks of IP retinal dosing, HPLC; format: in vivo; conditions: for Total A2E-lipofuscin versus retinal group (FIG. 7A, in words): C20-D3-retinal alone, Fenretinide or TDH given with retinal; for Less A2E-lipofuscin compared to animals administered only all-trans-retinal: all-trans-retinal 3 mg IP for 8 weeks plus drug at roughly 1.5 mg/day/animal in drinking water
# Procedure: Animals treated with retinal had the greatest amount of A2E-lipofuscin (normalized to 100%).
# 45-50 day old, female, CD IGS rats (Charles River, Wilmington, Mass.) were divided up into four groups of three. Three of these groups were administered all-trans-retinal and the one group was given C20-D3-all-trans-retinal (IP injection in a 10% solution of Tween-20 in saline) at 3 mg, bi- or tri-weekly for 8 weeks (20, 3 mg injections total). Thus, at the end of the 8-week period the animals received roughly 20 times their original stores of vitamin A, as retinal or C20-D3-all-trans-retinal. Massive dosing with C20-D3-all-trans-retinal quickly replaces normal vitamin A stores with the C20-D3-analog. Of the three groups administered all-trans-retinal, one group was given Fenretinide (50) and another TDH (23), at doses of roughly 1.5 mg/day/animal (both supplied in the drinking water emulsified with 1 g/L of Nu-rice (RIBUS, Inc, St. Louis, Mo.)).
# At the end of the 8 weeks, RPE, A2E-lipofuscin was evaluated in each of the four groups by HPLC as described in Example 3 and in FIG. 7. A2E-lipofuscin pigments were greatest in the animals receiving all-trans-retinal (the control group).
# ABCR−/− mice [3] = assay: Electron microscopy of RPE lipofuscin deposits in ABCR-/- mice raised exclusively on the diet; format: in vivo; conditions: 5.5-6 month old mice raised only on the diet
# Source text: Due to the uncertainty in distinguishing lipofuscin from melanin bodies. Comparisons were made between the numbers of all dark, electron dense bodies found in the RPE between mice on the retinol acetate diet vs. those on the C20-D3-all-trans-retinol acetate diet. In addition to the electron dense lipofuscin and melanin bodies, RPE phagosomes, mitochondria, and lipid droplets are also present but were ultrastructurally distinct.
# In order to measure the amount lipofuscin granules in the eyes of the above mice on a normal diet vs. the diet containing C20D3-all-trans-retinol acetate, eyecups from both groups of mice (2 from each group) were evaluated by electron microscopy.
# ABCR−/− mice [4] = assay: Extractable lipofuscin pigments in eyecups of ABCR-/- mice raised exclusively on the diet, HPLC; format: in vivo; conditions: 5.5-6 month old mice raised only on the diet, offspring of mothers on the same diet
# Procedure: On the other hand, lipofuscin pigments were undetectable in mice raised on the C20-D3-all-trans-retinol acetate diet.
# As in Example 4, two groups of four ABCR^−/− mice where raised either on diets containing C20-D3-all-trans-retinol acetate or all-trans-retinol acetate. However, in this example the mice were offspring of mothers on the same diet, and thus where raised only on their respective vitamin A analogs. At 5.5-6 months of age the mice were sacrificed and the eyecups were analyzed for lipofuscin pigments as described in Example 4. The results are shown FIG. 5.
# ABCR−/− mice [5] = assay: A2E-lipofuscin in eyecups of ABCR-/- mice after 3-month diet, HPLC; format: in vivo; conditions: diet with 20,000 I.U./kg for 3 months, from 2 months of age; HPLC at 445 nm
# Procedure: C20-D3-all-trans-retinol acetate was prepared according to the literature procedure (47) and was administered to ABCR^−/− mice (48, 49) in order to measure its ability to lead to lipofuscin compared to that of all-trans-retinol acetate. Eight 2-month old, ABCR^−/− mice raised on a standard rodent diet were then fed a diet containing 20,000 I.U./kg of either C20-D3-all-trans-retinol acetate or all-trans-retinol acetate for 3 months.
# At the end of the […] period, the eyes were dissected, eyecups pooled into groups of six and homogenated with 80 μL ethanol. The homogenate was centrifuged at 13000 rpm for 5 min and 30 μL of the supernatant was drawn off and analyzed for A2E-lipofuscin by HPLC. A2E-lipofuscin was measured at 445 nm. […] This percentage of A2E reduction is on the same order of magnitude observed in similar studies in ABCR^−/− mice with the visual cycle antagonist TDH, TDT, Ret-NH2, 13-cis-retinoic, acid and fenretinide. However, in this example A2E reduction is achieved with doses of C20-D3-all-trans-retinol acetate that are 11- to 40-times less.
# [6] = In vitro A2E formation from C20-fluorinated retinal, monitored by HPLC; conditions: C20 hydrogens replaced by fluorine; disappearance of retinal and absence of fluorinated A2E by HPLC
# Source text: In the present invention, when the C20 hydrogens of all-trans-retinoids are replaced by fluorine atoms (F3), the formation of A2E is eliminated, as measured by monitoring the disappearance of C20-F3-all-trans-retinal and the absence of the corresponding fluorinated A2E by HPLC. A2E and the ATR-dimer are believed to be formed in vivo by a multi-step reaction sequence involving two molecules of all-trans-retinal, as shown in FIG. 2. In the first step, all-trans-retinal condenses with a biological amine to form the imine. This imine is then thought to undergo a hydrogen shift involving a hydrogen atom at carbon C20 (step 2). Subsequent reaction (step 3) with another molecule of retinal either by 1,2- or 1,4-addition followed by cyclizations (step 4) yields A2E or ATR-dimer precursors, respectively. A2E is subsequently formed after spontaneous oxidation in air, and ATR dimer, after elimination (step 4).
# It has been shown that replacing certain C—H bonds with C—F bonds in retinal (i.e., C20-F1-3-retinal) hampers the reactivity of all-trans-retinal, and, thus slows or eliminates the formation of A2E in vitro. By replacing hydrogen atoms at C20 with fluorine, the hydrogen shift step is blocked. Accordingly, C20-F1-3-retinal is expected to appreciably slow A2E and ATR-dimer biosynthesis.
# patients [7] = conditions: oral 600 or 900 mg/m2 bid in 6-week cycles, cited from earlier work
# patients [8] = conditions: 200 mg/day for five years, 1,432 patients; cited from earlier work
# [9] = 2-month-old ABCR knockout mice, 50 mg/kg bi-weekly for two months
molecule,measurement,setting,value
CC1=C(/C=C/C(C)=C/C=C/C(C)=C\C(=O)O)C(C)(C)CCC1 [13 cis-retinoic acid],Lipofuscin formation in the RPE cell layer judged by electron microscopy,"ABCR knockout mice; 2-month-old ABCR knockout mice, 20 mg/kg/day for two months",decrease in lipofuscin formation
same,Decrease in A2E formation compared to control ABCR knockout mice,"ABCR knockout mice; 3-month-old ABCR knockout mice, 40 mg/kg/day for one month",40-50%
same,"Share of users with back pain, muscle and joint pain, allergic reaction, dizziness, hair loss, dry eyes, decreased night vision, low blood counts and others",users; in vivo,10-29%
same,"Share of users with headache, fever, dry skin, dry mucous membranes, bone pain, nausea and vomiting, rash, mouth sores, itching, sweating, eyesight changes",users; larger doses used to treat cancer,more than 30%
same,Effect on dark adaptation when administered,[1],delayed dark adaptation
[2H]C([2H])([2H])C(/C=C/C=C(C)/C=C/C1=C(C)CCCC1(C)C)=C\C=O [C20-D3-all-trans-retinal],Less A2E-lipofuscin compared to mice administered all-trans-retinal,CD-1 (ICR) mice,68%
same,Hydrogen deuterium exchange during the reaction,[2],not observed
same,Less A2E-lipofuscin than animals receiving all-trans-retinal,"CD IGS rats; 3 mg IP bi- or tri-weekly for 8 weeks, given instead of all-trans-retinal",35%
same,"Total A2E-lipofuscin versus retinal group (FIG. 7A, in words)",CD IGS rats,less A2E-lipofuscin
[2H]C([2H])([2H])C(/C=C/C=C(C)/C=C/C1=C(C)CCCC1(C)C)=C\COC(C)=O [C20-D3-all-trans-retinol acetate],Electron dense (lipofuscin) bodies in the RPE versus retinol acetate diet,ABCR−/− mice [3],less electron dense lipofuscin deposits; also recorded: considerably less electron dense bodies
same,Lipofuscin pigments extracted from eyecups (HPLC),ABCR−/− mice [4],undetectable
same,Less A2E-lipofuscin compared to mice on a diet of all-trans-retinol acetate,ABCR−/− mice [5],44-58%
CC(C=CC1=C(C)CCCC1(C)C)=CC=CC(=CC=O)C(F)(F)F [C20-F3-all-trans-retinal],Formation of A2E,[6],eliminated
"CC1=C(/C=C/C(C)=C/C=C/C(C)=C/C(=O)Nc2ccc(O)cc2)C(C)(C)CCC1 [Fenretinide, N-(4-hydroxyphenyl)retinamide]",Decrease in A2E formation compared to control ABCA4 knockout mice,"ABCR knockout mice; 2-month-old ABCA4 knockout mice, 20 mg/kg/day for one month",40-50%
same,Patients with mild to moderate adverse effects possibly linked to the drug,patients [7]; 45 patients,95%
same,Grade 2 toxicities reported as possibly linked to treatment,patients [7],seizures and confusion
same,"Dermatologic disorders, incidence",patients [8],16%
same,"Diminished dark adaptation, cumulative incidence",patients [8],16%
same,"Disorders of the ocular surface, incidence",patients [8],8%
same,"Gastrointestinal symptoms, incidence",patients [8],8%
same,"Total A2E-lipofuscin versus retinal group (FIG. 7A, in words)",CD IGS rats,less A2E-lipofuscin
same,Less A2E-lipofuscin compared to animals administered only all-trans-retinal,CD IGS rats,49%
same,Effect on dark adaptation when administered,[1],delayed dark adaptation
"CC1=C(/C=C/C(C)=C/C=C/C(C)=C/CN)C(C)(C)CCC1 [Ret-NH2, All-trans-retinylamine]",Decrease in A2E formation compared to control ABCA4 knockout mice,"ABCR knockout mice; 1-month-old ABCA4 knockout mice, 40 mg/kg bi-weekly for two months",about 50%
same,Effect on dark adaptation when administered,[1],severe delayed dark adaptation
"CCCCCCCCCCCCCCCCNC/C=C(\C)CC/C=C(\C)CCC=C(C)C [TDH, (2E,6E)-N-hexadecyl-3,7,11-trimethyldodeca-2,6,10-trienamine]",Decrease in A2E formation compared to control ABCR knockout mice,ABCR knockout mice; [9],about 50%
same,"Total A2E-lipofuscin versus retinal group (FIG. 7A, in words)",CD IGS rats,less A2E-lipofuscin
same,Less A2E-lipofuscin compared to animals administered only all-trans-retinal,CD IGS rats,31%
same,Effect on dark adaptation when administered,[1],delayed dark adaptation
"CCCCCCCCCCC(=O)/C=C(\C)CC/C=C(\C)CCC=C(C)C [TDT, (12E,16E)-13,17,21-trimethyldocosa-12,16,20-trien-11-one]",Decrease in A2E formation compared to control ABCR knockout mice,ABCR knockout mice; [9],50-85%
same,Effect on dark adaptation when administered,[1],delayed dark adaptation
CC1=C(/C=C/C(C)=C/C=C/C(C)=C/C=O)C(C)(C)CCC1 [all-trans-retinal],"Total A2E, HPLC peak area at 445 nm, normalized","CD IGS rats; FIG. 7A, three female rats per group",100%
all-trans-retinol acetate,Lipofuscin pigments extracted from eyecups (HPLC),ABCR−/− mice [4],detectable
same,Lipofuscin pigments extracted from eyecups (HPLC),ABCR−/− mice [4]; listed as retinol acetate,considerable accumulation of lipofuscin pigments
